Results taken from the Biogen ADME set (Fang et al. 2023).
Values after ≈ are worked out from the molar mass of the structure shown.

Details: for aqueous solubility: pH 6.8

SMILES | MDR1-MDCK efflux ratio | intrinsic clearance, human liver microsomes [mL/min/kg] | intrinsic clearance, rat liver microsomes [mL/min/kg] | aqueous solubility [µg/mL]
O=C(NC[C@H]1CCN(c2ccccc2)C1)N1CCc2sccc2C1 | 0.834 | 226 | 2510 | 16.9 (≈ 49.3 µM)
Cc1ccc(-c2nc(C(=O)N3CCc4ccccc4C3)cs2)o1 | 0.421 | 187 | 3610 | 36 (≈ 111 µM)
N#Cc1c(Cl)nc(N)n1-c1ccccc1 | – | 11.7 | 27.7 | –
COc1nc2c(cc1CNC(=O)N1CC[C@@H](O)C1)C(=O)N(C1CCCC1)C2 | 32 | ≤ 4.74 | ≤ 10.7 | –
N#Cc1cnn(-c2ccc(F)cc2)c1N | – | – | – | 29.2 (≈ 144 µM)
Nc1nccc2c1ncn2[C@H]1C=C(CO)[C@@H](O)[C@H]1O | – | ≤ 4.74 | 16.3 | –
CCCCCCCCc1ccc(CCC(N)(CO)CO)cc1 | – | 7.6 | 17 | –
O=C(Nc1nc2ccccc2[nH]1)C1CC(=O)N(c2cccc(C(F)(F)F)c2)C1 (stereo unspecified) | – | – | – | 0.82 (≈ 2.11 µM)
Cn1nccc1C(=O)C1CCN(C(=O)c2cc(C(C)(C)C)nn2C)CC1 | – | ≤ 4.74 | 97.9 | –
CC(=O)NC[C@H]1C[C@]2(C)[C@@H](CCCC[C@]2(C)O)N1CC1(O)CCCCCC1 | – | 51.2 | 587 | –
CCOC(=O)CNC(=O)c1ccc(O)cc1O | 0.704 | 34.3 | 114 | 36.2 (≈ 151 µM)
Brc1nnc(N2CCC(OC3CCCC3)CC2)s1 | 0.582 | 77.3 | 3110 | –
CCCCC1=NC2(CCCC2)C(=O)N1Cc1ccc(-c2ccccc2-c2nnn[nH]2)cc1 | 75.6 | 9.16 | 108 | 29.5 (≈ 68.7 µM)
O=C1NCCCCC1NC(=O)N1CCc2sccc2C1 (stereo unspecified) | 4.48 | 4.84 | 47 | 49.6 (≈ 169 µM)
Nc1ncnc2ccc(-c3ccnc(F)c3)nc12 | 0.726 | ≤ 4.74 | ≤ 10.7 | –
Cn1cc(CN2CCCC(c3ccnc(Nc4cnccn4)c3)C2)cn1 (stereo unspecified) | 6.36 | 7.74 | 179 | –
N#Cc1ccccc1Cn1nnc(-c2ccccc2)n1 | 0.448 | 10.7 | 211 | 11.4 (≈ 43.8 µM)

SMILES | MDR1-MDCK efflux ratio | intrinsic clearance, human liver microsomes [mL/min/kg] | intrinsic clearance, rat liver microsomes [mL/min/kg] | aqueous solubility [µg/mL]
O=C(NC1CCCC1)c1cc(C2CC2)nc2ccccc12 | 0.695 | 61.9 | 140 | 18.6 (≈ 66.3 µM)
CN(C(=O)[C@@H](N)Cc1ccccc1)c1ccccc1 | – | ≤ 4.74 | 392 | –
N#Cc1cc(F)ccc1Cn1ccnc1-c1ccccn1 | – | 20.5 | 415 | –
C[C@H](Cn1nc2c(cc1=O)CCCCC2)NC(=O)Cc1cccs1 | – | 153 | 817 | –
Cc1ccc2cccc(OCC(=O)N(C)c3ccccc3)c2n1 | 1.52 | 126 | 482 | 55 (≈ 179 µM)
O=C(NCCc1ccc2c(c1)OCO2)Nc1ccncc1 | 3.6 | 8.32 | 27.3 | 46.5 (≈ 163 µM)
OC(Cn1cncn1)(Cn1cncn1)c1ccc(F)cc1F | 5.25 | ≤ 4.74 | ≤ 10.7 | 42.9 (≈ 140 µM)
CC(C)(C)n1cc(CNc2cccnc2)cn1 | 0.564 | ≤ 4.74 | 41.7 | 25.4 (≈ 111 µM)
COc1ccc2nc(C)nc(N3CC(O)(c4ccc(F)cc4)C3)c2c1 | 3.87 | 26.9 | 468 | 19.4 (≈ 57.3 µM)
Cc1cc(CNc2ncc(C(F)(F)F)cc2Cl)no1 | 0.601 | 64.6 | 128 | 26.8 (≈ 92 µM)
O=C(CCOc1ccccc1)N1CCCC(c2n[nH]cc2-c2ccc(Cl)cc2)C1 (stereo unspecified) | 4.26 | – | – | 0.8 (≈ 1.95 µM)
O=C(CN1CCCN(c2ccc(C(F)(F)F)cn2)CC1)Nc1ccccc1F | 0.671 | 148 | 1100 | 19.4 (≈ 49.1 µM)
N[C@H](Cc1c[nH]c2ccccc12)C(=O)N/N=C/c1ccc2nccnc2c1 | 13.4 | 17.2 | 55.8 | 40.3 (≈ 112 µM)
Cc1nccc(NC(=O)c2ccncc2Cl)c1Cl | 0.729 | 21.2 | 78.1 | –
COc1ccccc1CC(=O)NC1CCN(C)CC1 | 6.13 | ≤ 4.74 | 54.6 | 43.2 (≈ 165 µM)
CC#CCNc1ccc(-n2cnnn2)c(C)c1 | 0.59 | 21.1 | 131 | 19.4 (≈ 85.4 µM)

More lines, now with the values ahead:

MDR1-MDCK efflux ratio | intrinsic clearance, human liver microsomes [mL/min/kg] | intrinsic clearance, rat liver microsomes [mL/min/kg] | aqueous solubility [µg/mL] | SMILES
0.649 | ≤ 4.74 | ≤ 10.7 | 54.6 (≈ 232 µM) | COc1ccccc1-c1nc(C(=O)O)cs1
– | – | – | 0.45 (≈ 1.23 µM) | O=C(Nc1nc2ccccc2[nH]1)c1cc(-c2ccccc2)nc2ccccc12
7.96 | ≤ 4.74 | ≤ 10.7 | 60.9 (≈ 278 µM) | C#CCNC(=O)CCc1c(C)nn(C)c1C
4.29 | 15 | 120 | – | Fc1c(CN2CCC(c3nnc4ccccn34)CC2)cccc1OC1CC1
23.1 | ≤ 4.74 | 16.6 | – | Cc1nnc(COc2cccc(-n3ccnc3)c2)n1C1CC1
0.61 | 80.8 | 2430 | – | CN(C)c1cncc(-c2ccc(S(=O)(=O)N(C)C)cc2)n1
– | 18.1 | 53.5 | – | O=C(Nc1cc[nH]n1)c1ccc2c(c1)[nH]c(=O)n2C1CCCC1
21.5 | ≤ 4.74 | ≤ 10.7 | 90 (≈ 213 µM) | CNC(=O)c1ccc2c(c1)CCO[C@H]2CCN1CCN(c2ccc(C(N)=O)cc2)CC1
1.94 | 46.4 | 330 | 53.5 (≈ 137 µM) | COc1cc(CNCCN2CCOCC2)cc(Cl)c1OCc1ccccc1
0.438 | 55 | 344 | 1.02 (≈ 3.92 µM) | CON(C)C(=O)c1cc2ccc(C(C)(C)C)cc2[nH]1
0.748 | 302 | 2050 | 55.6 (≈ 164 µM) | Cc1nccc(-c2cccc(NCC(=O)N3CCCCCCC3)c2)n1
0.967 | ≤ 4.74 | 28.8 | 46.6 (≈ 172 µM) | COc1ncccc1CNc1ncnc2c1cnn2C
– | 43.1 | 2570 | – | CN(C)c1ncc(CN2CCC(Cc3ccc(F)cc3)CC2)s1
0.826 | ≤ 4.74 | 73.1 | – | Cc1nccc(NC(=O)CCc2ccncc2)c1Cl
0.561 | ≤ 4.74 | 71 | 52.1 (≈ 173 µM) | Cc1ccc(-c2cc(NC(=O)CN3CCOCC3)on2)cc1
– | 16.7 | 153 | – | COCC(=O)NC1(C#Cc2ccc(NC(=O)C3CC3)nc2)CCCCC1
– | ≤ 4.74 | ≤ 10.7 | – | CCNC1=N[C@@H]2[C@@H](O)[C@@H](O)[C@H](CO)O[C@@H]2S1
0.732 | 18.6 | 630 | – | c1ccn2cc(CSc3ccc(-n4cccn4)nn3)nc2c1
0.42 | 26.1 | 124 | – | O=c1c2ccccc2nnn1CCOc1ccc(F)cc1
14.2 | 43.7 | 413 | – | CC[C@@H]1C(=O)N(C)c2cnc(-n3ccnc3-c3ccc(F)cc3)nc2N1c1ccn(C)n1
0.747 | 5.81 | 127 | 42.5 (≈ 122 µM) | O=C(c1ccc(-n2cccn2)nc1)N1CCN(c2ccccc2O)CC1
0.393 | 11.8 | 791 | – | O=C(Nc1ccccn1)c1ccc2c(c1)C(=O)N(C1CCCCC1)C2=O
– | – | – | 0.78 (≈ 2.81 µM) | c1cnn(-c2ccc(-c3ccc(NC4CC4)nn3)cc2)c1
1.23 | ≤ 4.74 | 20.6 | 34 (≈ 123 µM) | c1ccc(Cc2nnc(NC3CCOCC3)s2)cc1
– | – | – | 56.4 (≈ 160 µM) | COc1ccc(S(=O)(=O)N2CCC(N3CCC(C)CC3)CC2)cc1
– | 269 | 5450 | – | O=C(CCn1ccc2ccccc21)N1CCC(n2c(=O)[nH]c3ccccc32)CC1
0.79 | ≤ 4.74 | 39 | 26 (≈ 106 µM) | Cc1nc(CC(=O)NCc2ccccc2)cs1
0.681 | – | – | 31.8 (≈ 108 µM) | COC(=O)[C@@H]1C[C@H](O)CN1CC#Cc1ccc(Cl)cc1
